Laboratory results: the NIST ThermoML archive (doi:10.1016/j.jct.2011.10.013)
± gives the expanded uncertainty stated by the source.

How the values were obtained:
[1] = xn = mol fraction of the nth substance listed; conditions: 298.15 K; for surface tension liquid-gas: Dataphysics DCAT21 digital tensiometer; for mass density: 101 kPa, Liquid, Vibrating tube method
[2] = for surface tension liquid-gas: Dataphysics DCAT21 digital tensiometer; for mass density: Liquid, Vibrating tube method

CCCCO [butan-1-ol] + CCCCCCCC[n+]1ccccc1.O=[N+]([O-])[O-]
surface tension liquid-gas ([1]; x2 = 0): 23.67 ± 0.5 mN/m | mass density ([1]; x2 = 0): 805.6 ± 1 kg/m3

CCO [ethanol] + CCCCCCCC[n+]1ccccc1.O=[N+]([O-])[O-]
surface tension liquid-gas ([1]; x2 = 0): 21.55 ± 0.5 mN/m | mass density ([1]; x2 = 0): 784.8 ± 1 kg/m3

CCCCCCCC[n+]1ccccc1.O=[N+]([O-])[O-] [1-octylpyridinium nitrate] + CO
surface tension liquid-gas ([1]; x1 = 0.1026): 27.4 ± 0.51 mN/m | surface tension liquid-gas ([1]; x1 = 0.2063): 30.11 ± 0.51 mN/m | surface tension liquid-gas ([1]; x1 = 0.3072): 30.78 ± 0.51 mN/m | surface tension liquid-gas ([1]; x1 = 0.4225): 32 ± 0.51 mN/m | mass density ([1]; x1 = 0.1026): 910.2 ± 1 kg/m3 | mass density ([1]; x1 = 0.2063): 974.3 ± 1 kg/m3 | mass density ([1]; x1 = 0.3072): 1011.3 ± 1 kg/m3 | mass density ([1]; x1 = 0.4225): 1038.4 ± 1 kg/m3 | mass density ([1]; x1 = 0.5067): 1052.6 ± 1 kg/m3 | mass density ([1]; x1 = 0.6067): 1065 ± 1 kg/m3 | mass density ([1]; x1 = 0.8534): 1084.4 ± 1 kg/m3 | mass density ([1]; x1 = 0.936): 1087.5 ± 1 kg/m3 | mass density ([1]; x1 = 1): 1089.5 ± 1 kg/m3

CCCCCCCC[n+]1ccccc1.O=[N+]([O-])[O-] [1-octylpyridinium nitrate] + CCCCO
surface tension liquid-gas ([1]; x1 = 0.1245): 25.17 ± 0.5 mN/m | surface tension liquid-gas ([1]; x1 = 0.2008): 25.84 ± 0.5 mN/m | surface tension liquid-gas ([1]; x1 = 0.3038): 26.35 ± 0.5 mN/m | surface tension liquid-gas ([1]; x1 = 0.4019): 26.92 ± 0.5 mN/m | surface tension liquid-gas ([1]; x1 = 0.5012): 27.53 ± 0.51 mN/m | mass density ([1]; x1 = 0.1245): 875.3 ± 1 kg/m3 | mass density ([1]; x1 = 0.2008): 910 ± 1 kg/m3 | mass density ([1]; x1 = 0.3038): 948.6 ± 1 kg/m3 | mass density ([1]; x1 = 0.4019): 978.1 ± 1 kg/m3 | mass density ([1]; x1 = 0.5012): 1002 ± 1 kg/m3 | mass density ([1]; x1 = 0.6025): 1023 ± 1 kg/m3 | mass density ([1]; x1 = 0.701): 1041.7 ± 1 kg/m3 | mass density ([1]; x1 = 0.8005): 1059 ± 1 kg/m3 | mass density ([1]; x1 = 0.899): 1074.9 ± 1 kg/m3 | mass density ([1]; x1 = 1): 1089.5 ± 1 kg/m3

CCCCCCCC[n+]1ccccc1.O=[N+]([O-])[O-] [1-octylpyridinium nitrate]
surface tension liquid-gas ([2]; 293.15 K): 36.12 ± 0.53 mN/m | mass density ([2]; 293.15 K, 101.33 kPa): 1093.5 ± 1 kg/m3 | surface tension liquid-gas ([2]; 298.15 K): 35.76 ± 0.53 mN/m | mass density ([2]; 298.15 K, 101.33 kPa): 1089.5 ± 1 kg/m3 | surface tension liquid-gas ([2]; 303.15 K): 35.5 ± 0.53 mN/m | mass density ([2]; 303.15 K, 101.33 kPa): 1084.2 ± 1 kg/m3 | surface tension liquid-gas ([2]; 308.15 K): 35.18 ± 0.53 mN/m | mass density ([2]; 308.15 K, 101.33 kPa): 1078.6 ± 1 kg/m3 | surface tension liquid-gas ([2]; 313.15 K): 34.76 ± 0.53 mN/m | mass density ([2]; 313.15 K, 101.33 kPa): 1073.4 ± 1 kg/m3 | surface tension liquid-gas ([2]; 318.15 K): 34.48 ± 0.53 mN/m | mass density ([2]; 318.15 K, 101.33 kPa): 1068.6 ± 1 kg/m3 | surface tension liquid-gas ([2]; 323.15 K): 34.12 ± 0.53 mN/m | mass density ([2]; 323.15 K, 101.33 kPa): 1063.8 ± 1 kg/m3 | surface tension liquid-gas ([2]; 328.15 K): 33.78 ± 0.53 mN/m | mass density ([2]; 328.15 K, 101.33 kPa): 1059.7 ± 1 kg/m3

CO [methanol]
surface tension liquid-gas ([2]; 298.15 K): 22.09 ± 0.5 mN/m | mass density ([2]; 298.15 K, 101 kPa): 785.3 ± 1 kg/m3

CO [methanol] + CCCCCCCC[n+]1ccccc1.O=[N+]([O-])[O-]
surface tension liquid-gas ([1]; x2 = 0): 22.09 ± 0.5 mN/m | mass density ([1]; x2 = 0): 785.3 ± 1 kg/m3

CCO [ethanol]
surface tension liquid-gas ([2]; 298.15 K): 21.55 ± 0.5 mN/m | mass density ([2]; 298.15 K, 101 kPa): 784.8 ± 1 kg/m3

CCCCO [butan-1-ol]
surface tension liquid-gas ([2]; 298.15 K): 23.67 ± 0.5 mN/m | mass density ([2]; 298.15 K, 101 kPa): 805.6 ± 1 kg/m3

CCCCCCCC[n+]1ccccc1.O=[N+]([O-])[O-] [1-octylpyridinium nitrate] + CCO
surface tension liquid-gas ([1]; x1 = 0.2): 26.44 ± 0.51 mN/m | surface tension liquid-gas ([1]; x1 = 0.3035): 27.83 ± 0.51 mN/m | surface tension liquid-gas ([1]; x1 = 0.4063): 28.74 ± 0.51 mN/m | surface tension liquid-gas ([1]; x1 = 0.5087): 29.75 ± 0.51 mN/m | mass density ([1]; x1 = 0.2): 939.3 ± 1 kg/m3 | mass density ([1]; x1 = 0.3035): 981.4 ± 1 kg/m3 | mass density ([1]; x1 = 0.4063): 1011.5 ± 1 kg/m3 | mass density ([1]; x1 = 0.5087): 1034.2 ± 1 kg/m3 | mass density ([1]; x1 = 0.5903): 1048.5 ± 1 kg/m3 | mass density ([1]; x1 = 0.7456): 1069.4 ± 1 kg/m3 | mass density ([1]; x1 = 0.791): 1073.9 ± 1 kg/m3 | mass density ([1]; x1 = 0.876): 1081.5 ± 1 kg/m3 | mass density ([1]; x1 = 1): 1089.5 ± 1 kg/m3
